Experimental data published in ChEMBL document CHEMBL4256942, “Exo Olefin-Containing Nuclear Transport Modulators and Uses Thereof” (2016).

Target: Exportin-1 (Homo sapiens, UniProt O14980)
Assay: Inhibition of CRM1 in human HeLa cells expressing GFP which is N-terminally fused to nuclear localization and C-terminally fused to nuclear export signal of PKI assesed as reduction in GFP subcellular localization incubated for 3 hrs by nuclear export assay
Type: cell-based

Exportin-1, sequence (O14980 whole entry, the tested form may be a part): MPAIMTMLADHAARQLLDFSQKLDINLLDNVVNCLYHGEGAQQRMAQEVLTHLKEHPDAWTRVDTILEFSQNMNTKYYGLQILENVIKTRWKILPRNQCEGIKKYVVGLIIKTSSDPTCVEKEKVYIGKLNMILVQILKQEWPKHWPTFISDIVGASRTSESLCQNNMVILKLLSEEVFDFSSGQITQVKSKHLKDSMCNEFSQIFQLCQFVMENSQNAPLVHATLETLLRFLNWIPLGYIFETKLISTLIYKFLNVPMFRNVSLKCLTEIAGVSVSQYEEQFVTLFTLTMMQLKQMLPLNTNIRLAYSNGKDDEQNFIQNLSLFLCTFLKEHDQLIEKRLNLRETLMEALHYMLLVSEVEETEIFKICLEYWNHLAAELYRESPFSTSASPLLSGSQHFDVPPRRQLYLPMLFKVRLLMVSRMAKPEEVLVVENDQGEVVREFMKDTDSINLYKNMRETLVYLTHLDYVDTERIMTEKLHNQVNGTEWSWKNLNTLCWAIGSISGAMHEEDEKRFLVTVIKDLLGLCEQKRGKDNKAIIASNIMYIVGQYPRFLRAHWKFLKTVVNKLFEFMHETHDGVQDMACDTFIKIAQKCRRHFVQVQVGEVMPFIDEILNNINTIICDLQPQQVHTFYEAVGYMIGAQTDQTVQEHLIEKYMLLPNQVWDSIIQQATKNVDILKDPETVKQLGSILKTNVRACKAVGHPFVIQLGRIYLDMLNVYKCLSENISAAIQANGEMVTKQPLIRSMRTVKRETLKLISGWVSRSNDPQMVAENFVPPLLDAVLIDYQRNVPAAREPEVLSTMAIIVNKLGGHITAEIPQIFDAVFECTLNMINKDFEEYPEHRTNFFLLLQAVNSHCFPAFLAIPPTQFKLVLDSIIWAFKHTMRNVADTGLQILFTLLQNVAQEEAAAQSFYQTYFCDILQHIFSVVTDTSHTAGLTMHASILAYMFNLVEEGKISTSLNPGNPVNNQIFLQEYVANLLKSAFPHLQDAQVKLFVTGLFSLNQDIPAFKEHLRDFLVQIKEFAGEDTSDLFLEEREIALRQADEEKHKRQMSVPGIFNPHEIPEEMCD

Row | EC50 | SMILES
1 | 30 µM | C=C(Cn1nnc(-c2cccc(C(F)(F)F)c2)n1)C(=O)OCC
2 | 30 µM | C=C(Cn1nnc(-c2cccc(Cl)c2)n1)C(=O)OCC
